Measurements published in ChEMBL document CHEMBL2074499, “Cloning and functional expression of a human liver organic cation transporter” (Mol Pharmacol, 1997).

How the values were obtained:
[1] = target: T1, Solute carrier family 22 member 1 (Homo sapiens, UniProt O15245); assay: TP_TRANSPORTER: inhibition of MPP+ uptake in Xenopus laevis oocytes; assay type: functional, cell-based, Oocyte
T1 sequence (O15245 whole entry): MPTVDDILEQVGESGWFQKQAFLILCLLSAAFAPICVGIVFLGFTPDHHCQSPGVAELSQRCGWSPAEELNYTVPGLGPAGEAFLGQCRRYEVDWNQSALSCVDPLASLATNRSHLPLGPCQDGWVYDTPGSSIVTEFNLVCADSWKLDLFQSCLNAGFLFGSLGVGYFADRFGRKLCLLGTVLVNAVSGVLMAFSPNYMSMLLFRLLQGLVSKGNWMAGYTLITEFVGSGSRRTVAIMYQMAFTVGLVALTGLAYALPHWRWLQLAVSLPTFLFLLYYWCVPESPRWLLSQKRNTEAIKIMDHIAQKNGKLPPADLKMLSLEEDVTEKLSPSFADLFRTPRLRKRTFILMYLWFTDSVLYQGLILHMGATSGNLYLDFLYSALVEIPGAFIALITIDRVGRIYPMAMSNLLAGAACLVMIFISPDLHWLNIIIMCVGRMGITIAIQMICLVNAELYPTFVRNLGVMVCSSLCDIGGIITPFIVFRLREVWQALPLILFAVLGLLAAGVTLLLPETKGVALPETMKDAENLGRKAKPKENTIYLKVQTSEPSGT

[2] = target: T1, Solute carrier family 22 member 1; assay: TP_TRANSPORTER: inhibition of MPP+ uptake (MPP+: 0.85 uM, Verapamil: 5000 uM) in Xenopus laevis oocytes; assay type: functional, cell-based; details: oocyte
[3] = target: T1, Solute carrier family 22 member 1; assay: TP_TRANSPORTER: inhibition of MPP+ uptake (MPP+: 0.85 uM, Thymidine: 5000 uM) in Xenopus laevis oocytes; assay type: functional, cell-based; details: oocyte
[4] = target: T1, Solute carrier family 22 member 1; assay: TP_TRANSPORTER: inhibition of MPP+ uptake (MPP+: 0.15 uM, Inosine: 1000 uM) in Xenopus laevis oocytes; assay type: functional, cell-based; details: oocyte
[5] = target: T1, Solute carrier family 22 member 1; assay: TP_TRANSPORTER: inhibition of MPP+ uptake (MPP+: 0.85 uM, NMN: 5000 uM) in Xenopus laevis oocytes; assay type: functional, cell-based; details: oocyte
[6] = target: T1, Solute carrier family 22 member 1; assay: TP_TRANSPORTER: inhibition of MPP+ uptake (MPP+: 0.85 uM, Pancuronium: 1000 uM) in Xenopus laevis oocytes; assay type: functional, cell-based; details: oocyte
[7] = target: T1, Solute carrier family 22 member 1; assay: TP_TRANSPORTER: inhibition of MPP+ uptake (MPP+: 0.85 uM, Procainamide: 5000 uM) in Xenopus laevis oocytes; assay type: functional, cell-based; details: oocyte
[8] = target: T1, Solute carrier family 22 member 1; assay: TP_TRANSPORTER: inhibition of MPP+ uptake (MPP+: 0.85 uM, Quinidine: 1000 uM) in Xenopus laevis oocytes; assay type: functional, cell-based; details: oocyte
[9] = target: T1, Solute carrier family 22 member 1; assay: TP_TRANSPORTER: inhibition of MPP+ uptake (MPP+: 0.85 uM, Quinine: 1000 uM) in Xenopus laevis oocytes; assay type: functional, cell-based; details: oocyte
[10] = substrate: C[n+]1ccc(-c2ccccc2)cc1; assay: TP_TRANSPORTER: uptake in Xenopus laevis oocytes; assay type: functional, cell-based, Oocyte

CCN1/C(=C/c2ccc3ccccc3[n+]2CC)C=Cc2ccccc21
Ki [1]: 4.4 µM

COc1ccc(CCN(C)CCCC(C#N)(c2ccc(OC)c(OC)c2)C(C)C)cc1OC (configuration not stated)
Activity [2]: inhibitor [+]

Cc1cn([C@H]2C[C@H](O)[C@@H](CO)O2)c(=O)[nH]c1=O [DOXRIBTIMINE]
Activity [3]: inhibitor [+]

OC[C@H]1O[C@@H](n2cnc3c(O)ncnc32)[C@H](O)[C@@H]1O [INOSINE]
Activity [4]: inhibitor [+]

CNC(=O)c1cccnc1 [NICOTINYL METHYLAMIDE]
Activity [5]: inhibitor [+]

CC(=O)O[C@H]1C[C@@H]2CC[C@@H]3[C@H](CC[C@@]4(C)[C@H]3C[C@H]([N+]3(C)CCCCC3)[C@@H]4OC(C)=O)[C@@]2(C)C[C@@H]1[N+]1(C)CCCCC1 [PANCURONIUM]
Activity [6]: inhibitor [+]

CCN(CC)CCNC(=O)c1ccc(N)cc1 [PROCAINAMIDE]
Activity [7]: inhibitor [+]

C=C[C@H]1C[N@@]2CC[C@H]1C[C@@H]2[C@@H](O)c1ccnc2ccc(OC)cc12 [QUINIDINE]
Activity [8]: inhibitor [+]

C=C[C@H]1C[N@@]2CC[C@H]1C[C@H]2[C@H](O)c1ccnc2ccc(OC)cc12 [QUININE]
Activity [9]: inhibitor [+]

CC[N+](CC)(CC)CC [TETRYLAMMONIUM]
Ki [1]: 163 µM

CC(=O)O[C@H]1C[C@@H]2CC[C@@H]3[C@H](CC[C@@]4(C)[C@H]3C[C@H]([N+]3(C)CCCCC3)[C@@H]4OC(C)=O)[C@@]2(C)C[C@@H]1N1CCCCC1 [VECURONIUM]
Ki [1]: 120 µM

B1: Solute carrier family 22 member 1 (Homo sapiens) (protein)
chain: T1 sequence (O15245 whole entry)
Km [10]: 14.6 µM
